# Experimental data from PubChem BioAssay (NCI).
#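 Five concentrations, 48 hours, 96-well plates. TGI is the concentration that stops growth completely.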
# Assays:
# Assay in all cases: NCI-60 cell line screen, 48 h
# SNB-19 CNS = system: SNB-19 CNS
# BT-549 breast = system: BT-549 breast
# SK-MEL-5 melanoma = system: SK-MEL-5 melanoma
# 786-0 renal = system: 786-0 renal
# HCT-15 colon = system: HCT-15 colon
# CCRF-CEM leukemia = system: CCRF-CEM leukemia
# DU-145 prostate = system: DU-145 prostate
# OVCAR-5 ovarian = system: OVCAR-5 ovarian
# MCF7 breast = system: MCF7 breast
# RPMI-8226 leukemia = system: RPMI-8226 leukemia
# SK-MEL-2 melanoma = system: SK-MEL-2 melanoma
# EKVX NSCLC = system: EKVX NSCLC
# K-562 leukemia = system: K-562 leukemia
# LOX IMVI melanoma = system: LOX IMVI melanoma
# SF-539 CNS = system: SF-539 CNS
# NCI-H23 lung = system: NCI-H23 lung
# CAKI-1 renal = system: CAKI-1 renal
# NCI/ADR-RES ovarian = system: NCI/ADR-RES ovarian
# MDA-MB-435 = system: MDA-MB-435
# NCI-H460 lung = system: NCI-H460 lung
# SNB-75 CNS = system: SNB-75 CNS
# HCT-116 colon = system: HCT-116 colon
# ACHN renal = system: ACHN renal
# HOP-62 NSCLC = system: HOP-62 NSCLC
# MOLT-4 leukemia = system: MOLT-4 leukemia
# HL-60(TB) leukemia = system: HL-60(TB) leukemia
# OVCAR-3 ovarian = system: OVCAR-3 ovarian
# UACC-257 melanoma = system: UACC-257 melanoma
# NCI-H226 lung = system: NCI-H226 lung
# MDA-MB-231 breast = system: MDA-MB-231 breast
# TK-10 renal = system: TK-10 renal
# SF-268 CNS = system: SF-268 CNS
# SW-620 colon = system: SW-620 colon
# SF-295 CNS = system: SF-295 CNS
# HS 578T breast = system: HS 578T breast
# COLO 205 colon = system: COLO 205 colon
# SK-MEL-28 melanoma = system: SK-MEL-28 melanoma
# KM12 colon = system: KM12 colon
# MALME-3M melanoma = system: MALME-3M melanoma
# SN12C renal = system: SN12C renal
# M14 melanoma = system: M14 melanoma
# SR leukemia = system: SR leukemia
# IGROV1 ovarian = system: IGROV1 ovarian
# SK-OV-3 ovarian = system: SK-OV-3 ovarian
# HT29 colon = system: HT29 colon
# UACC-62 melanoma = system: UACC-62 melanoma
# OVCAR-8 ovarian = system: OVCAR-8 ovarian
# PC-3 prostate = system: PC-3 prostate
# A498 renal = system: A498 renal
smiles,measurement,setting,value
COC1=CC(=O)N(C(=O)C2CSC(C(CO)NC(=O)c3csc(/C=N/O)n3)=N2)C1 (centres undefined),TGI,SNB-19 CNS,> 100 µM
same,TGI,BT-549 breast,> 100 µM
same,TGI,SK-MEL-5 melanoma,> 100 µM
same,TGI,786-0 renal,> 100 µM
same,TGI,HCT-15 colon,> 100 µM
same,TGI,CCRF-CEM leukemia,> 100 µM
same,TGI,DU-145 prostate,> 100 µM
same,TGI,OVCAR-5 ovarian,> 100 µM
same,TGI,MCF7 breast,> 100 µM
same,TGI,RPMI-8226 leukemia,> 100 µM
same,TGI,SK-MEL-2 melanoma,> 100 µM
same,TGI,EKVX NSCLC,> 100 µM
same,TGI,K-562 leukemia,> 100 µM
same,TGI,LOX IMVI melanoma,> 100 µM
same,TGI,SF-539 CNS,> 100 µM
same,TGI,NCI-H23 lung,> 100 µM
same,TGI,CAKI-1 renal,> 100 µM
same,TGI,NCI/ADR-RES ovarian,> 100 µM
same,TGI,MDA-MB-435,> 100 µM
same,TGI,NCI-H460 lung,> 100 µM
same,TGI,SNB-75 CNS,91 µM
same,TGI,HCT-116 colon,> 100 µM
same,TGI,ACHN renal,> 100 µM
same,TGI,HOP-62 NSCLC,> 100 µM
same,TGI,MOLT-4 leukemia,> 100 µM
same,TGI,HL-60(TB) leukemia,> 100 µM
same,TGI,OVCAR-3 ovarian,> 100 µM
same,TGI,UACC-257 melanoma,> 100 µM
same,TGI,NCI-H226 lung,> 100 µM
same,TGI,MDA-MB-231 breast,> 100 µM
same,TGI,TK-10 renal,> 100 µM
same,TGI,SF-268 CNS,> 100 µM
same,TGI,SW-620 colon,> 100 µM
same,TGI,SF-295 CNS,> 100 µM
same,TGI,HS 578T breast,> 100 µM
same,TGI,COLO 205 colon,> 100 µM
same,TGI,SK-MEL-28 melanoma,> 100 µM
same,TGI,KM12 colon,> 100 µM
same,TGI,MALME-3M melanoma,> 100 µM
same,TGI,SN12C renal,> 100 µM
same,TGI,M14 melanoma,> 100 µM
same,TGI,SR leukemia,> 100 µM
same,TGI,IGROV1 ovarian,> 100 µM
same,TGI,SK-OV-3 ovarian,> 100 µM
same,TGI,HT29 colon,> 100 µM
same,TGI,UACC-62 melanoma,> 100 µM
same,TGI,OVCAR-8 ovarian,> 100 µM
same,TGI,PC-3 prostate,> 100 µM
same,TGI,A498 renal,> 100 µM
